Reference: patent US7429396B2, “Antifungal composition, its fungicidal effect on pathogenic dermatophytes, and process for inhibiting growth of fungi” (Bio-Botanica, Inc., priority 2003, dated 2008)
Values joined by “and” are separate entries in the source; they are usually repeats but may differ in a detail not shown here. Equal entries are not always repeated.

Experiments:
M. smegmatis ATCC 14468 = experiment: Agar Dilution susceptibility method (Example 5); format: cell-based, Mycobacterium smegmatis
Protocol: (§1) The Agar Dilution susceptibility method was used to test the effectiveness of the antimicrobial composition of Example 1. The organisms used were S. aureus ATCC 29213, E. coli ATCC 25922, S. typhimurium ATCC 14028, K. pneumoniae ATCC 10031, P. aeruginosa ATCC 27853, C. albicans ATCC 10231, and M. smegmatis ATCC 14468. The organisms were maintained on Tryptic Soy Agar (TSA) slants. For each week, the organisms were cultured in 10 ml of Tryptic Soy Broth (TSB). After incubation at 37° C. for 17 hours (48 hours for M. smegmatis), the organism suspensions were diluted with 10 ml of sterile saline as shown in Table 4. The mold Aspergillus niger was sustained on a Sabouraud Dextrose Agar slant. The sample was then cultured in 10 ml of Tryptic Soy Broth and incubated for 7 days at 22° C. The mold was then diluted in 0.1% Tween 80 in saline. The diluted bacteria and yeast organisms were then inoculated onto the prepared sample plates with a 1 μl loop. The mold Aspergillus niger was added to prepared sample tubes with a 100 μl pipette.
(§2) Phenyloxyethanol (PE), phenylethyl alcohol (PEA) and methyl/propylparabens (MP) in a ratio of 5:4 were initially screened at their commonly recommended effective concentrations of 0.3% v/v (3 μl/ml); 1% v/v (10 μl/ml); and 0.18% w/v (1 mg methyl and 0.8 mg propylparaben/ml), respectively. The antimicrobial agent was used at an initial concentration of 0.15% v/v (1.5 μl/ml).
(§3) The sample plates for the bacteria and yeast were prepared as follows: • Prepare 10 ml tubes of TSA and allow to cool to 50° C., • Add the calculated amount of the preservative or antimicrobial agent to 100 μl dimethylsulfoxide (DMSO) to achieve the specified concentration per ml TSA when 100 μl of the DMSO solution are added to a test tube containing 10 ml of TSA, • Vortex to homogenize the mixture in TSA, • Pour TSA and the preservative or antimicrobial agent into a properly labeled Petri dish, • Allow to cool overnight at room temperature.
(§4) The prepared sample plates were divided into seven sections and the plates labeled according to the preservative or antimicrobial agent. Each section was labeled according to the microorganism to be applied to each section. The diluted organism suspensions were inoculated onto their appropriate section with a 1 μl loop, streaking radially from the center to the outer edge of the plate. A positive control plate was prepared without a preservative or antimicrobial agent of Example 1. The plates were then incubated at 37° C. for 48 hours, recording the results at 24 and 48 hours.
(§5) The results for the bacteria and yeast were scored in relation to the growth present on the positive control plate. Growth (G) was noted when there was full growth visible and the organism was not affected. […]

C. albicans ATCC 10231 = experiment: Agar Dilution susceptibility method (Example 5); format: cell-based, Candida albicans
Protocol: as §1, §2, §3, §4, §5

P. aeruginosa ATCC 27853 = experiment: Agar Dilution susceptibility method (Example 5); format: cell-based, Pseudomonas aeruginosa
Protocol: as §1, §2
as §3, with “temperature. […]” for “temperature.”
The results for the bacteria and yeast were scored in relation to the growth present on the positive control plate. […]

[1] = tested on: Aspergillus niger ATCC 16404; experiment: Macro-dilution broth susceptibility method (Example 6); format: cell-based
Protocol: The mold Aspergillus niger ATCC 16404 was selected for the antifungal testing and maintained on Sabouraud Dextrose Agar. Aspergillus niger is a mold that commonly causes opportunistic infections in humans. Spores are prevalent in soil and on decaying organic matter. Aspergillus niger is also a common cause of contamination in products. The organism was cultured in 10 ml of Tryptic Soy Broth for 7 days at 22° C. After incubation, 1 ml of mold culture was added to 10 ml of 0.1% Tween 80 solution in sterile saline to achieve a spore concentration of 0.5 McFarland (1×10^8 spores/ml). This concentration was determined by visual comparison to a 0.5 McFarland standard. […]
The final concentration of mold spores in each sample was 1×10^4-1×10^5 spores/ml. The prepared tubes of TSB were incubated at 37° C. for 5 days, and the results recorded at 3 and 5 days. […]
The results were scored in relation to the growth present in the negative control tube. […] Partial activity (P) was recorded when the sample tube of TSB was less turbid than the control tube, and now growth (I) was recorded when there was total inhibition and the broth in the tube appeared clear. When a result of (I) was scored, the MIC was established by performing the appropriate dilutions.

Minimum Inhibitory Concentration (MIC) (sample/ml of agar or broth) (M. smegmatis ATCC 14468): 2.5 μl/ml | Minimum Inhibitory Concentration (MIC) (sample/ml of agar or broth) (C. albicans ATCC 10231): 2.5 μl/ml and 3.0 μl/ml | Minimum Inhibitory Concentration (MIC) (sample/ml of agar or broth) (P. aeruginosa ATCC 27853): 5.0 μl/ml | Minimum Inhibitory Concentration (MIC) ([1]; macro-dilution broth, Example 6): 2.5 μl/ml
SMILES: OCCc1ccccc1 [Phenylethyl Alcohol]
growth score (M. smegmatis ATCC 14468; 3.0 μl/ml): I | growth score (M. smegmatis ATCC 14468; 5.0 μl/ml): I | growth score (M. smegmatis ATCC 14468; 6.0 μl/ml): I | growth score (C. albicans ATCC 10231; 3.0 μl/ml): I | growth score (C. albicans ATCC 10231; 5.0 μl/ml): I | growth score (C. albicans ATCC 10231; 6.0 μl/ml): I | growth score (P. aeruginosa ATCC 27853; 5.0 μl/ml): I | growth score (P. aeruginosa ATCC 27853; 6.0 μl/ml): I | growth score ([1]; 2.5 μl/ml): I
